Patent US20090137492A1 (priority 2006, published 2009)
Where “and” joins values, the source holds several entries; their conditions need not be identical. Equal values may be shown once. Entries after “also recorded” stand apart in the source; their conditions may differ.

What was measured:
[1] = tested on: H3N2/Wuhan influenza virus; design: species or system cotton rat; conditions: rat, in vivo
anthrax spores = tested on: anthrax spores; design: species or system murine (A/J mice); conditions: mouse, in vivo
[2] = mouse, in vivo
[3] = tested on: B. anthracis Sterne spores; design: species or system Mice of the A/J strain; conditions: mouse, in vivo
IL-1beta = type: cell-based
IL-10 = type: cell-based
[4] = tested on: IL-1beta, IL-6, IL-10, TNF-alpha, Toll-Like Receptors (TLRs), NODs, SOCS; type: cell-based
IL-6 = tested on: IL-6; design: species or system cotton rat; conditions: rat, in vivo

## Sar^9, Met(O2)^11-Substance P [Viprovex]
[1]
  efficacy against influenza virus infection: provides therapeutic efficacy in animal models of infection by influenza virus; also recorded: more resistant to the effects of H3N2/Wuhan influenza virus
Anthrax spores
  increase in survival rates: 240%
  protection against anthrax-induced death: partially protect against anthrax-induced death
  protection from death, time course: clearly protected from death as early as 5 days post-exposure; also recorded: maintained survival from approximately day 10 onward
  survival rate: 68.8% and 62.5%
  survival, of the animals that would otherwise have died: 20-70%
[2]
  toxicity: no toxicity was observed
[3]
  inhibition of lethality: dose dependent inhibition of lethality
  treated animals that died: 2 of the 6
IL-1beta
  IL-1 mRNA increase relative to IL-6 increase: 28 ×
IL-10
  IL-10 mRNA increase relative to IL-6 increase: 21 ×
[4]
  elevation of components of the host immune system: elevation of cytokines, interleukins, TLR, defensins and other components of immune surveillance; also recorded: elevate multiple components of the host immune system
IL-6
  IL-6 levels in the lungs: do not significantly increase
  Il-6, single animals: 1.623 and 1.253 and 2.458 and 2.167 and 3.013 and 0 and 2.416 and 7.483 and 1.791
